The test system of the test is CD2F1 mice, L1210 leukemia ip, survival T/C. Put plainly: NCI In Vivo Anticancer Drug Screen. Data for tumor model L1210 Leukemia (intraperitoneal) in CD2F1 (CDF1) mice. Conditions: higher = longer survival. The procedure, abridged: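 In this screen, transplantable tumors were grown in mice given either the compound or its vehicle. Results were expressed as the treated measurement relative to the control measurement.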

Where [1] appears, read: endpoint: mean survival time, dose: 100.0 mg/kg/injection, schedule: Q01DX001 (ip), vehicle: saline.
[2] abbreviates: endpoint: mean survival time, dose: 200.0 mg/kg/injection, schedule: Q01DX001 (ip), vehicle: saline.
[3] abbreviates: endpoint: mean survival time, dose: 400.0 mg/kg/injection, schedule: Q01DX001 (ip), vehicle: saline.
Setting [4] is: endpoint: mean survival time, dose: 100.0 mg/kg/injection, schedule: Q04DX003 (ip), vehicle: saline with Tween-80.
The mark [5] stands for this setting: endpoint: mean survival time, dose: 200.0 mg/kg/injection, schedule: Q04DX003 (ip), vehicle: saline with Tween-80.
[6] abbreviates: endpoint: mean survival time, dose: 400.0 mg/kg/injection, schedule: Q04DX003 (ip), vehicle: saline with Tween-80.
Setting [7] is: endpoint: mean survival time, dose: 100.0 mg/kg/injection, schedule: Q01DX009 (ip), vehicle: saline with Tween-80.
Where [8] appears, read: endpoint: mean survival time, dose: 200.0 mg/kg/injection, schedule: Q01DX009 (ip), vehicle: saline with Tween-80.
The mark [9] stands for this setting: endpoint: mean survival time, dose: 400.0 mg/kg/injection, schedule: Q01DX009 (ip), vehicle: saline with Tween-80.

The text below walks through data of PubChem BioAssay AID256 (DTP/NCI, 2004).

“And” between values parts separate entries of the source, which are not always exact repeats. Equal entries are not always repeated. Inconclusive results and toxic doses are left out.

With `Cc1ccc(P(=S)(c2ccc(C)c3ccccc23)c2ccc(C)c3ccccc23)c2ccccc12`, the T/C is, setting by setting: under setting [1], 91 % of control; under setting [2], 97 % of control; under setting [3], 91 % of control.
`COc1ccc(CC2C(=O)NC(C)C(=O)N(C)C3C(=O)N(C)C(Cc4ccc(O)c(c4)Oc4ccc(cc4)C3O)C(=O)NC(C)C(=O)NC(C)C(=O)N2C)cc1` (stereo not drawn): the T/C reads like this: (endpoint: mean survival time, dose: 0.06 mg/kg/injection, schedule: Q01DX009 (ip), vehicle: saline) 106 % of control; (endpoint: mean survival time, dose: 0.12 mg/kg/injection, schedule: Q01DX009 (ip), vehicle: saline) 113 % of control and 102 % of control and 104 % of control; (endpoint: mean survival time, dose: 0.25 mg/kg/injection, schedule: Q01DX009 (ip), vehicle: Klucel (hydroxypropylcellulose) (HPC)) 113 % of control and 110 % of control; (endpoint: mean survival time, dose: 0.25 mg/kg/injection, schedule: Q01DX009 (ip), vehicle: saline) 114 % of control and 97 % of control and 108 % of control; (endpoint: mean survival time, dose: 0.5 mg/kg/injection, schedule: Q01DX009 (ip), vehicle: Klucel (hydroxypropylcellulose) (HPC)) 113 % of control and 103 % of control; (endpoint: mean survival time, dose: 0.5 mg/kg/injection, schedule: Q01DX009 (ip), vehicle: saline) 104 % of control and 109 % of control. Moreover, the T/C by setting is: (endpoint: mean survival time, dose: 1.0 mg/kg/injection, schedule: Q01DX009 (ip), vehicle: Klucel (hydroxypropylcellulose) (HPC)) 113 % of control and 110 % of control; (endpoint: mean survival time, dose: 1.0 mg/kg/injection, schedule: Q01DX009 (ip), vehicle: saline) 113 % of control and 114 % of control and 110 % of control; (endpoint: mean survival time, dose: 2.0 mg/kg/injection, schedule: Q01DX009 (ip), vehicle: Klucel (hydroxypropylcellulose) (HPC)) 113 % of control and 111 % of control; (endpoint: mean survival time, dose: 2.0 mg/kg/injection, schedule: Q01DX009 (ip), vehicle: saline) 116 % of control and 123 % of control; (endpoint: mean survival time, dose: 4.0 mg/kg/injection, schedule: Q01DX009 (ip), vehicle: Klucel (hydroxypropylcellulose) (HPC)) 119 % of control; (endpoint: mean survival time, dose: 4.0 mg/kg/injection, schedule: Q01DX009 (ip), vehicle: saline) 88 % of control and 96 % of control.
On to `Cc1ccc(S(=O)(=O)O)c2c([N+](=O)[O-])cccc12`, for which the T/C under setting [4] is 100 % of control, the T/C under setting [5] is 104 % of control and the T/C under setting [6] was 96 % of control.
Regarding `O=C(COc1ccc(Cl)c(Cl)c1)NCc1cccc([N+](=O)[O-])c1`, the T/C runs as follows: (endpoint: mean survival time, dose: 75.0 mg/kg/injection, schedule: Q01DX001 (ip), vehicle: saline with Tween-80) 93 % of control; (endpoint: mean survival time, dose: 150.0 mg/kg/injection, schedule: Q01DX001 (ip), vehicle: saline with Tween-80) 88 % of control; (endpoint: mean survival time, dose: 300.0 mg/kg/injection, schedule: Q01DX001 (ip), vehicle: saline with Tween-80) 86 % of control.
`[N-]=[N+]=NCC(=O)N1c2ccccc2Sc2ccccc21`: the T/C (endpoint: mean survival time, dose: 12.5 mg/kg/injection, schedule: Q01DX009 (ip), vehicle: other) was 95 % of control; the T/C (endpoint: mean survival time, dose: 25.0 mg/kg/injection, schedule: Q01DX009 (ip), vehicle: other) is 103 % of control; the T/C (endpoint: mean survival time, dose: 50.0 mg/kg/injection, schedule: Q01DX009 (ip), vehicle: other) was 98 % of control; the T/C (endpoint: mean survival time, dose: 100.0 mg/kg/injection, schedule: Q01DX009 (ip), vehicle: other) is 101 % of control; the T/C (endpoint: mean survival time, dose: 200.0 mg/kg/injection, schedule: Q01DX009 (ip), vehicle: other) was 95 % of control.
For `COc1ccc(NC(=O)Nc2ccc(C)cc2C)cc1`, the T/C reads like this: under setting [7], 86 % of control; under setting [8], 88 % of control.
As for `Cc1ccccc1C(C)C`, the T/C runs as follows: under setting [4], 101 % of control; under setting [5], 97 % of control; under setting [6], 101 % of control.
Take `CC1CCC=C2C(=O)C3OC3C(C(C)(C)O)C21C` (stereo not drawn): the T/C is, setting by setting: (endpoint: mean survival time, dose: 100.0 mg/kg/injection, schedule: Q04DX003 (ip), vehicle: acetone) 93 % of control; (endpoint: mean survival time, dose: 200.0 mg/kg/injection, schedule: Q04DX003 (ip), vehicle: acetone) 88 % of control; (endpoint: mean survival time, dose: 400.0 mg/kg/injection, schedule: Q04DX003 (ip), vehicle: acetone) 88 % of control.
In the case of `O=C1CC2c3[nH]c4ccccc4c3CCN2C2=C1CCCC2` (stereo not drawn), the T/C reads like this: under setting [4], 100 % of control; under setting [5], 103 % of control.
On to `O=C(Nc1ccccc1)c1ccccc1C(O)(c1ccccc1)c1ccccn1` (stereo not drawn), for which the T/C by setting is: under setting [4], 97 % of control; under setting [5], 101 % of control; under setting [6], 86 % of control.
On to `O=c1cc(-c2ccc(S(=O)(=O)F)cc2)[nH]c2ccc([N+](=O)[O-])cc12`, for which the T/C is, setting by setting: (endpoint: mean survival time, dose: 100.0 mg/kg/injection, schedule: Q01DX001 (ip), vehicle: Klucel (hydroxypropylcellulose) (HPC)) 108 % of control; (endpoint: mean survival time, dose: 200.0 mg/kg/injection, schedule: Q01DX001 (ip), vehicle: Klucel (hydroxypropylcellulose) (HPC)) 101 % of control; (endpoint: mean survival time, dose: 400.0 mg/kg/injection, schedule: Q01DX001 (ip), vehicle: Klucel (hydroxypropylcellulose) (HPC)) 112 % of control.
Regarding `CC1CC(=O)C=C(O)C1` (stereo not drawn), the T/C is 93 % of control under setting [4], 93 % of control under setting [5] and 93 % of control under setting [6].
For the compound `CCOC(=O)C(OC(=O)CC)c1ccccc1` (stereo not drawn), the T/C is 96 % of control under setting [7], 100 % of control under setting [8] and 102 % of control under setting [9].
On to `CC1CC1C(N)=O` (stereo not drawn), for which the T/C by setting is: (endpoint: mean survival time, dose: 50.0 mg/kg/injection, schedule: Q04DX002 (ip), vehicle: saline) 103 % of control; (endpoint: mean survival time, dose: 100.0 mg/kg/injection, schedule: Q04DX002 (ip), vehicle: saline) 98 % of control and 102 % of control; (endpoint: mean survival time, dose: 200.0 mg/kg/injection, schedule: Q04DX002 (ip), vehicle: saline) 98 % of control and 103 % of control; (endpoint: mean survival time, dose: 400.0 mg/kg/injection, schedule: Q04DX002 (ip), vehicle: saline) 101 % of control and 104 % of control; (endpoint: mean survival time, dose: 600.0 mg/kg/injection, schedule: Q04DX002 (ip), vehicle: saline) 98 % of control; (endpoint: mean survival time, dose: 800.0 mg/kg/injection, schedule: Q04DX002 (ip), vehicle: saline) 100 % of control.
`CCCCCCCCCCCCCCSc1ccc(Br)cc1`: the T/C reads like this: (endpoint: mean survival time, dose: 100.0 mg/kg/injection, schedule: Q01DX001 (ip), vehicle: saline with Tween-80) 110 % of control; (endpoint: mean survival time, dose: 200.0 mg/kg/injection, schedule: Q01DX001 (ip), vehicle: saline with Tween-80) 101 % of control; (endpoint: mean survival time, dose: 400.0 mg/kg/injection, schedule: Q01DX001 (ip), vehicle: saline with Tween-80) 93 % of control.
Consider `Cc1cc(C)cc(OC(=O)/C=C/C(=O)Oc2cc(C)cc(C)c2)c1`, for which the T/C is, setting by setting: under setting [4], 100 % of control; under setting [5], 95 % of control; under setting [6], 96 % of control.
As to `Cc1ccc(/C=N/N2C(=O)CSC2=S)cc1`, the T/C (endpoint: mean survival time, dose: 75.0 mg/kg/injection, schedule: Q01DX001 (ip), vehicle: other) was 102 % of control and the T/C (endpoint: mean survival time, dose: 150.0 mg/kg/injection, schedule: Q01DX001 (ip), vehicle: other) was 97 % of control.
As to `CC(=O)N1CCC(Cc2ccccc2)CC1`, the T/C is 97 % of control (endpoint: mean survival time, dose: 100.0 mg/kg/injection, schedule: Q04DX003 (ip), vehicle: saline); 94 % of control (endpoint: mean survival time, dose: 200.0 mg/kg/injection, schedule: Q04DX003 (ip), vehicle: saline); 95 % of control (endpoint: mean survival time, dose: 400.0 mg/kg/injection, schedule: Q04DX003 (ip), vehicle: saline).
Consider `CCC([NH-])(CC)C[NH-].[Cl][Pt+2][Cl]`, for which the T/C by setting is: (endpoint: mean survival time, dose: 0.39 mg/kg/injection, schedule: Q04DX003 (ip), vehicle: saline with Tween-80) 101 % of control; (endpoint: mean survival time, dose: 0.79 mg/kg/injection, schedule: Q04DX003 (ip), vehicle: saline with Tween-80) 102 % of control; (endpoint: mean survival time, dose: 1.56 mg/kg/injection, schedule: Q04DX003 (ip), vehicle: saline with Tween-80) 107 % of control; (endpoint: mean survival time, dose: 3.12 mg/kg/injection, schedule: Q04DX003 (ip), vehicle: saline with Tween-80) 108 % of control; (endpoint: mean survival time, dose: 3.13 mg/kg/injection, schedule: Q04DX003 (ip), vehicle: saline) 232 % of control; (endpoint: mean survival time, dose: 6.25 mg/kg/injection, schedule: Q04DX003 (ip), vehicle: saline) 208 % of control. Also, the T/C (endpoint: mean survival time, dose: 25.0 mg/kg/injection, schedule: Q04DX003 (ip), vehicle: saline with Tween-80) was 111 % of control.
As to `N#C[S-].N#C[S-].[Au+3].[Au+3].[CH3-].[CH3-].[CH3-].[CH3-]`, the T/C was 96 % of control under setting [4] and 98 % of control under setting [5].
As for `COc1ccc(-c2cnc(C(N)=O)c(=O)[nH]2)cc1`, the T/C by setting is: under setting [7], 100 % of control; under setting [8], 96 % of control; under setting [9], 101 % of control.
In the case of `CCOC(=O)/N=C/N(C)C`, the T/C under setting [1] is 100 % of control; the T/C under setting [2] was 109 % of control; the T/C under setting [3] is 103 % of control; the T/C (endpoint: median survival time, dose: 25.0 mg/kg/injection, schedule: Q04DX003 (ip), vehicle: saline with Tween-80) was 100 % of control; the T/C (endpoint: median survival time, dose: 50.0 mg/kg/injection, schedule: Q04DX003 (ip), vehicle: saline with Tween-80) was 100 % of control; the T/C (endpoint: median survival time, dose: 100.0 mg/kg/injection, schedule: Q04DX003 (ip), vehicle: saline with Tween-80) is 100 % of control.
